From PubChem BioAssay (NCI)
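Where inhibition never reached the appropriate level, the endpoint shown equals the highest concentration tested. Otherwise, values were interpolated linearly from a five-concentration, 48-hour dose response in 96-well plates. TGI: total growth inhibition.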

Experiments:
Assay in all cases: NCI tumour cell line growth inhibition, 48 h
[1] = test system: PC-3 prostate
[2] = test system: SF-295 CNS
[3] = test system: NCI-H23 lung
[4] = test system: DU-145 prostate
[5] = test system: SF-268 CNS
[6] = test system: SW-620 colon
[7] = test system: SK-MEL-5 melanoma
[8] = test system: OVCAR-3 ovarian
[9] = test system: U251 CNS
[10] = test system: IGROV1 ovarian
[11] = test system: HT29 colon

COc1ccc(C(OCC2OC(n3cc(C)c(=O)[nH]c3=O)CC2n2cc(Cn3cc(I)c(=O)[nH]c3=O)nn2)(c2ccccc2)c2ccccc2)cc1 (configuration not stated)
TGI [1]: > 100 µM | TGI [2]: > 100 µM | TGI [3]: > 100 µM | TGI [4]: > 100 µM | TGI [5]: > 100 µM | TGI [6]: > 100 µM | TGI [7]: > 100 µM | TGI [8]: > 100 µM | TGI [9]: > 100 µM | TGI [10]: > 100 µM | TGI [11]: > 100 µM

O=C1/C(=C/c2ccc(O)cc2)CC/C1=C\c1ccc(O)cc1
TGI [1]: > 100 µM | TGI [2]: > 100 µM | TGI [3]: > 100 µM | TGI [4]: > 100 µM | TGI [5]: > 100 µM | TGI [6]: > 100 µM | TGI [7]: > 100 µM | TGI [8]: > 100 µM | TGI [9]: > 100 µM | TGI [10]: > 100 µM | TGI [11]: > 100 µM

COc1ccc(N2C(=O)C3c4[nH]c5ccccc5c4C4CCC(C(C)(C)C)CC4C3C2=O)c(C)c1 (configuration not stated)
TGI [1]: > 100 µM | TGI [2]: > 100 µM | TGI [3]: > 100 µM | TGI [4]: > 100 µM | TGI [5]: > 100 µM | TGI [6]: > 100 µM | TGI [7]: > 100 µM | TGI [8]: > 100 µM | TGI [9]: > 100 µM | TGI [10]: > 100 µM | TGI [11]: > 100 µM

COc1ccc(C2c3cc4c(cc3OC(NNS(=O)(=O)c3ccc(C)cc3)C2C)OCO4)cc1 (configuration not stated)
TGI [1]: > 100 µM | TGI [2]: > 100 µM | TGI [3]: > 100 µM | TGI [4]: > 100 µM | TGI [5]: > 100 µM | TGI [6]: > 100 µM | TGI [7]: > 100 µM | TGI [8]: > 100 µM | TGI [9]: > 100 µM | TGI [10]: > 100 µM | TGI [11]: > 100 µM

N#CC1=C(N)N(c2ccccc2)C(c2ccco2)C1(C#N)C#N (configuration not stated)
TGI [1]: 60.5 µM | TGI [2]: 93.9 µM | TGI [3]: 38.9 µM | TGI [4]: 37.4 µM | TGI [5]: > 100 µM | TGI [6]: 39.2 µM | TGI [7]: 32.3 µM | TGI [8]: 56.7 µM | TGI [9]: 43 µM | TGI [10]: 47.9 µM | TGI [11]: 37.1 µM

Cc1ccc(SCC(CSCCO)OCn2cnc3c2NC(N)=NC32OCCO2)cc1 (configuration not stated)
TGI [1]: > 100 µM | TGI [2]: > 100 µM | TGI [3]: > 100 µM | TGI [4]: > 100 µM | TGI [5]: > 100 µM | TGI [6]: > 100 µM | TGI [7]: > 100 µM | TGI [8]: > 100 µM | TGI [9]: > 100 µM | TGI [10]: > 100 µM | TGI [11]: > 100 µM

Cc1ccsc1/C=N/Nc1ncccn1
TGI [1]: > 100 µM | TGI [2]: > 100 µM | TGI [3]: > 100 µM | TGI [4]: > 100 µM | TGI [5]: > 100 µM | TGI [6]: > 100 µM | TGI [7]: > 100 µM | TGI [8]: > 100 µM | TGI [9]: > 100 µM | TGI [10]: > 100 µM | TGI [11]: > 100 µM
